From US20230364243A1, “CANCER-SELECTIVE TARGET DEGRADATION BY TARGETING GROUP CAGED PROTACS” (Beth Israel Deaconess Medical Center, Inc., priority 2021, published 2023)

Key:
HeLa cells = assay: Cell viability of HeLa cells (CCK-8 cell proliferation assay); type: cell-based; conditions: 72 hours
Procedure: (§1) Cell in 96-well plates were treated with drugs as indicated, and then incubated with 10 μl/well of CCK-8 (cell counting Kit-8) solution at for 1-2 hours, followed by the measurement of optical density at 450 nm.

HFF-1 cells = assay: Cell viability of HFF-1 normal cells (CCK-8 cell proliferation assay); type: cell-based, human; conditions: 72 hours
Procedure: as §1

MM.1S cells = assay: Cell viability / proliferation of MM.1S cells (CCK-8); type: cell-based; conditions: for IC50: Homo sapiens, MM1.S
Procedure: For folic acid competitive degradation assay, cells were pretreated with folic acid (F8758, Sigma-Aldrich, 2.5 mM) for 2 hours, followed by the treatment of indicated PROTACs for indicated time. For endocytosis inhibition, cells were pretreated with Pitostop 2 (SML1169, Sigma-Aldrich, 1-30 μM) or MCD (21633, Cayman, 0.03-1 mM) for 12 hours, followed by co-treatment with indicated PROTACs for another 12 hours. For proteasome or E3 ligase inhibition assay, cells were treated with MG132 (BML-P11020, ENZO Life Sciences, 10 μM) or MLN4924 (S7109, SelleckChem, 1 μM) another 12 hours. For GSH-stimulating assay, cells were treated with S-Acetyl-GSH (29624, Cayman, 1 mM) with indicated PROTACs for 12 or 72 hours.
as §1

IKZF3 [1] = molecular target: T1, IKZF3 (Homo sapiens, UniProt Q96SW2+Q9UKT9); assay: Western blotting of IKZF3 in MM.1S cells; type: cell-based; design: endogenous in cells; host or cells: MM.1S (also MM.1S-CRBN+/+ and CRBN-/-); conditions: for effect on degrading IKZF3 after depletion of endogenous CRBN E3 ubiquitin ligase: CRBN knockout
Procedure: (§2) For folic acid competitive degradation assay, cells were pretreated with folic acid (F8758, Sigma-Aldrich, 2.5 mM) for 2 hours, followed by the treatment of indicated PROTACs for indicated time. […] For proteasome or E3 ligase inhibition assay, cells were treated with MG132 (BML-P11020, ENZO Life Sciences, 10 μM) or MLN4924 (S7109, SelleckChem, 1 μM) another 12 hours.
(§3) Cells were lysed in EBC buffer (50 mM Tris-HCl pH 7.5, 120 mM NaCl and 0.5% NP-40) supplemented with protease inhibitors (Pierce) and phosphatase inhibitors (phosphatase inhibitor cocktailset I and II, Calbiochem). The protein concentrations of the lysates were measured using the Bio-Rad protein assay reagent on a Beckman Coulter DU-800 spectrophotometer. The lysates (40 μg protein) werethen resolved by 10% SDS-olyacrylamide gel electrophoresis (PAGE) at 130 V for 80 min and immunoblotted with indicated antibodies at 4° C. overnight, washed four times with Tris-buffered saline with 0.1% Tween-20 (TBST) buffer, incubated with secondary antibody for 1 hour at room temperature, and then washed 4 times with TBST.

[2] = Release of active compound after incubation with DTT in PBS at 37° C., HPLC analysis; type: physicochemical; conditions: DTT (2 equiv), 37° C. in PBS, HPLC
Procedure: FA-S2-POMA and the negative control FA-C2-POMA were incubated with dithiothreitol (DTT) under physiological conditions (37° C. in phosphate buffered saline (PBS)) and then subjected to HPLC analysis.
The effects of these folate caged PROTACS on ALK fusion protein degradation was assessed in cancer cells. FA-S2-MS4048 and FA-C2-MS4048 were incubated with DTT at 37° C. in PBS. […] Furthermore, compared to FA-S2-POMA (FIG. 11B), the release rate of FA-S2-MS4048 is slower.

[3] = molecular target: Flag-tagged cereblon (CRBN) (Homo sapiens, UniProt Q96SW2); assay: Streptavidin pulldown competition with biotinylated pomalidomide for Flag-CRBN; type: binding
Procedure: Streptavadin pull down assays were performed on cell lysis derived from HEK293T (kidney) cells. Cell lysis was incubated with biotin or biotin-POMA, with or without pomalidomide, FA-S2_POMA or FA-C2-POMA for 1 hour. Additionally, some cell lysates had been pretreated with GSH.
The streptavidin pulldown assay for biotin-pomalidomide was performed as previous reported. Briefly, Flag-CRBN was expressed in HEK293T cells lysed in PROTAC buffer B (50 mM Tris-HCl pH7.5, 150 mM NaCl and 0.5% NP-40) supplemented with protease inhibitors (Pierce) and phosphatase inhibitors (phosphatase inhibitor cocktail set I and II, Calbiochem). A total of 1 mg of cell lysate was incubated with 10 μl of 10 mM biotin-pomalidomide and 8 μl of streptavidin beads for 1 hour at 4° C. in the absence or presence of pomalidomide or its derivates. Alternatively, Folate-S2-pomalidomide or Folate-C2-pomalidomide were incubated with 5 mM GSH and then subjected to the competition bindingassay. Then, the beads were washed four times with NETN buffer (20 mM Tris-HCl pH 7.5, pH 8.0, 100 mM NaCl, 1 mM EDTA and 0.5% NP-40), before being resolved by SDS-PAGE and immunoblotted with Flag-tag antibody.

IKZF3 [4] = molecular target: T2, IKZF3 (Homo sapiens, UniProt Q9UKT9); assay: Western blotting of IKZF3 in MM.1S cells; type: cell-based; conditions: FOLR1-positive MM.1S cells, 12 hours
T2 construct: endogenous in cells; host or cells: MM.1S (also MM.1S-CRBN+/+ and CRBN-/-)
Procedure: as §2, §3

IKZF1 = molecular target: T3, IKZF1 (Homo sapiens, UniProt Q13422+Q96SW2); assay: Western blotting of IKZF1 in SU-DHL-1 cells; type: cell-based; conditions: FOLR1-positive SU-DHL-1 cells, 12 hours
T3 construct: endogenous in cells; host or cells: SU-DHL-1
Procedure: as §3

BRDs = assay: Western blot analysis of BRDs in OVCAR-8 ovary cancer cells; type: cell-based; conditions: OVCAR-8 cells
Procedure: Cells were lysed in EBC buffer (50 mM Tris pH 7.5, 120 mM NaCl, 0.5% NP-40) supplemented with protease inhibitors (Pierce) and phosphatase inhibitors (phosphatase inhibitor cocktail set I and II, Calbiochem). The protein concentrations of the lysates were measured using the Bio-Rad protein assay reagent on a Beckman Coulter DU-800 spectrophotometer. The lysates were then resolved by SDS-PAGE and immunoblotted with indicated antibodies.
as §3

BRD4 = molecular target: T4, BRD4 (Homo sapiens, UniProt O60885); assay: Western blot analysis of BRDs protein levels in HeLa cells; type: cell-based; conditions: HeLa cells, even at 100 nM
T4 construct: endogenous in cells; host or cells: HeLa

IKZF3 [5] = molecular target: T1, IKZF3; assay: Western blotting of IKZF3 in FOLR1-negative THP-1 cells; type: cell-based; design: endogenous in cells; conditions: 12 hours
Procedure: as §3

Compound: Cc1ncsc1-c1ccc([C@H](C)NC(=O)[C@@H]2C[C@@H](O)CN2C(=O)[C@@H](NC(=O)COCCCOCCNC(=O)C[C@@H]2N=C(c3ccc(Cl)cc3)c3c(sc(C)c3C)-n3c(C)nnc32)C(C)(C)C)cc1 [ARV-771]
- IC50 (HeLa cells): 0.183 µM
- IC50 (HFF-1 cells): 1.1 µM

Compound: Nc1nc2ncc(CNc3ccc(C(=O)N[C@@H](CCC(=O)NCc4cn(CCSSCCOC(=O)N5C(=O)CCC(N6C(=O)c7cccc(N)c7C6=O)C5=O)nn4)C(=O)O)cc3)nc2c(=O)[nH]1 (stereo partly drawn) [FA-S2-POMA, N^5-((1-(2-((2-((3-(4-amino-1,3-dioxoisoindolin-2-yl)-2,6-dioxopiperidine-1-carbonyl)oxy)ethyl)disulfanyl)ethyl)-1H-1,2,3-triazol-4-yl)methyl)-N^2-(4-(((2-amino-4-oxo-3,4-dihydropteridin-6-yl)methyl)amino)benzoyl)-L-glutamine]
- IC50 (MM.1S cells; 72 hours): 1 µM
- potency in inhibiting proliferation after pretreatment with S-Ac-GSH (MM.1S cells; S-Ac-GSH 1 mM): significantly increased potency
- potency for suppression of proliferation with co-treatment of folic acid (MM.1S cells; folic acid co-treatment, 72 hours): significant reduction in potency
- effect on degrading IKZF3 with co-treatment of folic acid (IKZF3 [1]; MM.1S cells, 2.5 mM folic acid): effectively antagonized the effect
- effect on degrading IKZF3 after depletion of endogenous CRBN E3 ubiquitin ligase (IKZF3 [1]; MM.1S cells): completely abolished the effect
- potency in degrading IKZF3 after pretreatment with S-Ac-GSH (IKZF3 [1]; MM.1S cells, S-Ac-GSH 1 mM): significantly increased the potentcy
- effect on degradation of IKZF3 with MG132 or MLN4924 (IKZF3 [1]; MM.1S cells, proteasome inhibitor MG132 or neddylation inhibitor MLN4924): blocked the effect
- effect on degrading IKZFs with endocytosis inhibitor pitstop 2 or MβCD (IKZF3 [1]; co-treatment with pitstop 2 or methyl-β-cyclodextrin (MβCD)): compromised the effect
- release of pomalidomide after addition of DTT [2]: efficient release of pomalidomide
- competition with biotinylated-pomalidomide to bind CRBN E3 ubiquitin ligase ([3]; caged, inert form, HEK293T cell lysis, 1 hour): not compete
- release of active pomalidomide upon treatment with reducing agent GSH (pulldown) ([3]; pretreated with GSH): can release pomalidomide
- degradation of IKZF3 (IKZF3 [4]): degraded IKZF3 or IKZF1
- degradation of IKZF1 (IKZF1): degraded IKZF3 or IKZF1

Compound: Cc1ncsc1-c1ccc([C@H](C)NC(=O)[C@@H]2C[C@@H](NC(=O)CCCCn3cc(CNC(=O)CC[C@H](NC(=O)c4ccc(NCc5cnc6nc(N)[nH]c(=O)c6n5)cc4)C(=O)O)nn3)CN2C(=O)[C@@H](NC(=O)COCCCOCCNC(=O)C[C@@H]2N=C(c3ccc(Cl)cc3)c3c(sc(C)c3C)-n3c(C)nnc32)C(C)(C)C)cc1 [Folate-ARV-771N]
- degradation of BRDs (BRDs): but not Folate-ARV-771N, degraded BRDs
- degrading BRDs (BRD4): incapable of degrading BRDs

Compound: Nc1cccc2c1C(=O)N(C1CCC(=O)NC1=O)C2=O (stereo not shown) [pomalidomide, reference compound]
- degradation of IKZF3 (IKZF3 [5]): degrade IKZF3 or IKZF1
- IC50 (MM.1S cells; 72 hours): 0.058 µM
- effect on degrading IKZF3 after depletion of endogenous CRBN E3 ubiquitin ligase (IKZF3 [1]; MM.1S cells): completely abolished the effect
- degradation of IKZF3 (IKZF3 [4]): degrade IKZF3 or IKZF1
- degradation of IKZF1 (IKZF1): degrade IKZF3 or IKZF1
